Data taken from the OligoGym collection.
Where “and” joins values, the source holds several entries; their conditions need not be identical. Equal values may be shown once. After the bases stand the sugars from the 5' end (letter, count) and the backbone: PS all phosphorothioate, else s phosphorothioate and o phosphodiester by linkage. Methylation of C is not given here. e = 2'-O-(2-methoxyethyl) (MOE); k = constrained ethyl (cEt); d = 2'-deoxy (DNA)

Molecular target: IRF4
Conditions: ASO

Sequence	target mRNA inhibition (MM.1R, 1 µM)	target mRNA inhibition (SK-MEL-28, 4 µM)	other results
AGTTGTAAATGAGTCG (sugars k3 d9 k3 e1, PS)	87%	–	target mRNA inhibition (MM.1R, 0.074 µM): 27%; target mRNA inhibition (MM.1R, 0.222 µM): 61%; target mRNA inhibition (MM.1R, 0.666 µM): 80%; target mRNA inhibition (MM.1R, 2 µM): 95%
TGTGTATTACTCTTAG (sugars k2 d9 e3 k2, PS)	41% and 24%	–	–
CTGGCACCAAAAGTAC (sugars k3 d10 k3, PS)	–	18%	–
AGAAGCACTGGCATTG (sugars k3 d10 k3, PS)	–	45%	–
GGCAACAGTTCAAGTA (sugars k3 d10 k3, PS)	–	57%	–
TGATGTGATAGCTGAG (sugars kdddddddddkekeke, PS)	47%	–	–
TACCAACGACAGCATA (sugars k3 d10 k3, PS)	–	61%	–
TATATGACGACTTAAG (sugars k3 d10 k3, PS)	–	30%	–
GTGCAAGCCTCATTCA (sugars k3 d10 k3, PS)	19%	–	–
TGGCCACAGAGGACTT (sugars k3 d10 k3, PS)	–	33%	–
AACTGCAGCACCGTGG (sugars k3 d10 k3, PS)	–	45%	–
ATTAAAGGGTAAGCAC (sugars k3 d10 k3, PS)	–	32%	–
ATTTTAAGGCCCTGTC (sugars k3 d10 k3, PS)	–	34%	–
ATACTTAAGCAAGTGG (sugars k3 d10 k3, PS)	–	76%	–
ATGTGTATTACTCTTA (sugars kddddddddddkekek, PS)	17% and 4%	–	–
CCACGGACGGAGGCGG (sugars k3 d10 k3, PS)	-6%	–	–
GTCCACTGAGTACAAA (sugars k3 d10 k3, PS)	–	13%	–
CATGATATTAGAGACT (sugars k3 d10 k3, PS)	–	56%	–
TGTAACAGGCTATCAG (sugars k3 d10 k3, PS)	–	31%	–
AGGGATGGAACAGTAA (sugars k3 d10 k3, PS)	–	47%	–
TTAAACAGTGCCCAAG (sugars k3 d10 k3, PS)	–	21%	–
GGTCTGGAAACTCCTC (sugars k3 d10 k3, PS)	–	52%	target mRNA inhibition (MM.1R, 0.074 µM): 13%; target mRNA inhibition (MM.1R, 0.222 µM): 14%; target mRNA inhibition (MM.1R, 0.666 µM): 12%; target mRNA inhibition (MM.1R, 2 µM): 17%; target mRNA inhibition (SK-MEL-28, 0.185 µM): 1%; target mRNA inhibition (SK-MEL-28, 5 µM): 63%; target mRNA inhibition (SK-MEL-28, 15 µM): 86%
CGTGAGAATGTTGGCT (sugars k3 d10 k3, PS)	–	49%	–
GAGTCACCTGGAATCT (sugars k4 d8 k4, PS)	–	6%	–

Sequence	target mRNA inhibition (MM.1R, 1 µM)	target mRNA inhibition (SK-MEL-28, 4 µM)	other results
ACTGCTTGAGGTTTTC (sugars kkdddddddddekeke, PS)	40%	–	–
AGCTTGATAAAGGCTG (sugars kkddddddddddkeke, PS)	1%	–	–
GGCCTGAAGCTTAGTT (sugars k3 d10 k3, PS)	-5% and 6%	–	–
GCAGTGATGTCAGGTT (sugars kkkdddddddddkeke, PS)	56%	–	–
GGTCACTTGGTTCTCT (sugars k3 d10 k3, PS)	–	79%	–
CGAGAAGAGAGGCTGA (sugars k3 d10 k3, PS)	–	7%	–
ACACTTTTAGAGAGGA (sugars k2 d9 e3 k2, PS)	21%	–	–
CAGTGATGTCAGGTTT (sugars kkdddddddddekeke, PS)	47%	–	–
TCAAACCCTACTGGGT (sugars k3 d10 k3, PS)	–	8%	–
AGACAGATGACATGCT (sugars k3 d10 k3, PS)	–	50%	–
CCACAGAGGACTTCGG (sugars k3 d10 k3, PS)	–	27%	–
GTCACGCAATGGCAAA (sugars k3 d10 k3, PS)	-2%	–	–
AATACCTACCTGCCCT (sugars k3 d10 k3, PS)	–	15%	–
ATACAAAACGGACTGG (sugars k3 d10 k3, PS)	–	15%	–
CTCACTATTAAACAGC (sugars k3 d10 k3, PS)	–	24%	–
CTATGCTGAACCCCAC (sugars k3 d10 k3, PS)	–	1%	–
CAAAGAGCTTGCAGGT (sugars k3 d10 k3, PS)	–	4%	–
AGTGACTTGCATCCAT (sugars kkdddddddddekeke, PS)	34%	–	–
ACCAAGAAATGCACCT (sugars k3 d10 k3, PS)	–	57%	–
TTGCTAGATTCTCCCT (sugars k3 d10 k3, PS)	16%	–	–
TGTAAGTGATAGGTAT (sugars k3 d10 k3, PS)	–	53%	–
CTGAATTGTTACTAAA (sugars k3 d10 k3, PS)	–	21%	–
CTGATGTGTTCTGGTA (sugars k3 d10 k3, PS)	45% and 53%	–	target mRNA inhibition (MM.1R, 0.0625 µM): 14% and 36%; target mRNA inhibition (MM.1R, 0.25 µM): 27% and 41%; target mRNA inhibition (MM.1R, 4 µM): 69% and 70%
GCTAAAGAACACTGCT (sugars k3 d10 k3, PS)	–	3%	–

Sequence	target mRNA inhibition (MM.1R, 1 µM)	target mRNA inhibition (SK-MEL-28, 4 µM)	other results
GTGCAGACCTGAATAG (sugars k3 d10 k3, PS)	–	14%	–
GACCACGAGGCCCCGG (sugars k3 d10 k3, PS)	–	31%	–
CAAGCAGTGATGTCAG (sugars kkddddddddddkeke, PS)	20% and 26%	–	–
ACTGGATATGTGGTGT (sugars k3 d10 k3, PS)	10%	–	–
GGAAAGAGCTTTGGTG (sugars k3 d10 k3, PS)	–	12%	–
TGTAGAAGCCCACAAG (sugars k3 d10 k3, PS)	-7%	–	–
ACGGACGAACGCGCAA (sugars k3 d10 k3, PS)	-7%	–	–
GGCTAGCAGAGGTTCT (sugars k3 d10 k3, PS)	–	51%	–
AAGCATAAAAGGTTCC (sugars k3 d10 k3, PS)	–	28%	–
GAACACCATGCCCAAC (sugars k3 d10 k3, PS)	–	7%	–
GGTCTGGAAACTCCTC (sugars k4 d8 k4, PS)	–	31%	–
CAAGAACTGCAGCTCC (sugars k3 d10 k3, PS)	–	47%	–
CCTCAGTTTGTGAAGC (sugars kkdddddddddekeke, PS)	21%	–	–
CAGTAAACGCAAGTCT (sugars k3 d10 k3, PS)	-14%	–	–
AAGCAAGTCGGTCCAC (sugars k3 d10 k3, PS)	–	32%	–
CAAAGCGCACCGCAGG (sugars k3 d10 k3, PS)	-4%	–	–
GGAGTGCAGGAGAGGC (sugars k3 d10 k3, PS)	–	16%	–
AGATAGTTAAGTACTT (sugars k3 d10 k3, PS)	–	11%	–
CAGTTGTAAATGAGTC (sugars kddddddddddkekek, PS)	65%	–	target mRNA inhibition (H929, 0.00067 µM): 16%; target mRNA inhibition (H929, 0.002 µM): 25%; target mRNA inhibition (H929, 0.00667 µM): 52%; target mRNA inhibition (H929, 0.02 µM): 68%; target mRNA inhibition (H929, 0.04 µM): 38%; target mRNA inhibition (KMS11, 0.2 µM): 77% and 89%; target mRNA inhibition (MM.1R, 0.074 µM): 18%; target mRNA inhibition (MM.1R, 0.222 µM): 44%; target mRNA inhibition (MM.1R, 0.666 µM): 63%; target mRNA inhibition (MM.1R, 2 µM): 85%
TGGTTCTCTATAGTGT (sugars k3 d10 k3, PS)	–	71%	–
AACAAAAGGTTCCCGC (sugars k3 d10 k3, PS)	–	40%	–
CAATCATGATATTAGA (sugars k3 d10 k3, PS)	–	38%	–
ATATAACGGTGTTTCA (sugars k3 d10 k3, PS)	–	58%	–
TGGCAACCATTTTCAC (sugars k3 d10 k3, PS)	–	7%	–

Sequence	target mRNA inhibition (MM.1R, 1 µM)	target mRNA inhibition (SK-MEL-28, 4 µM)	other results
GGGTTAAATATTCTTC (sugars k3 d10 k3, PS)	–	52%	–
GCCGTTCCTTTTCAGA (sugars k3 d10 k3, PS)	–	62%	–
AGGTATACTTAAGCAA (sugars k3 d10 k3, PS)	–	68%	–
TCTCACGCAGTGCACC (sugars k3 d10 k3, PS)	–	44%	–
ACCTCAGTTTGTGAAG (sugars kdddddddddkekeke, PS)	16%	–	–
ATGTATACATCACTGC (sugars k3 d10 k3, PS)	–	67%	–
GTGGACACTTTTAGAG (sugars k3 d10 k3, PS)	–	52%	–
ACTGCTGTGTGTCAAA (sugars k4 d8 k4, PS)	–	19%	–
TCAGTTTGTGAAGCAT (sugars kkkddddddddkekek, PS)	41%	–	–
CTGAGTTGTACAGGAC (sugars k3 d10 k3, PS)	55% and 52%	–	target mRNA inhibition (MM.1R, 0.0625 µM): 4%; target mRNA inhibition (MM.1R, 0.25 µM): 22%; target mRNA inhibition (MM.1R, 4 µM): 81%
CACTGGCATTGAGACG (sugars k3 d10 k3, PS)	–	69% and 76%	–
ACGCAGAGCCAGTAGG (sugars k3 d10 k3, PS)	–	50%	–
GTCTACAGAACACAAG (sugars k3 d10 k3, PS)	–	24%	–
TAAACAGTGCCCAAGC (sugars k3 d10 k3, PS)	–	41%	–
ACAGTCCACTCCACCC (sugars k3 d10 k3, PS)	14%	–	–
CAAGAGGTGCGAGTAC (sugars k3 d10 k3, PS)	–	22%	–
TGGGATTATATACTGG (sugars k2 d9 e3 k2, PS)	54%	–	–
AGTGTTCCAGGAGATA (sugars k3 d10 k3, PS)	80% and 72%	–	target mRNA inhibition (MM.1R, 0.0625 µM): 43%; target mRNA inhibition (MM.1R, 0.25 µM): 59%; target mRNA inhibition (MM.1R, 4 µM): 84%
AGCTGCGGAGCCTGGG (sugars k3 d10 k3, PS)	31%	–	–
AAAGGGTAAGCACTGA (sugars k3 d10 k3, PS)	19%	–	–
CCTGTACACTTTGTAC (sugars k3 d10 k3, PS)	-2%	–	–
CCCTTAGGATAATATA (sugars k3 d10 k3, PS)	–	49%	–
AAAGAAACGAGTTGAC (sugars k3 d10 k3, PS)	14%	–	–
ATTACTAGATTGTAGG (sugars k3 d10 k3, PS)	–	50%	–
